Reference: article PMC10218704, “A Novel Blood–Brain Barrier-Penetrating and Vascular-Targeting Chimeric Peptide Inhibits Glioma Angiogenesis” (International Journal of Molecular Sciences, 2023)

Key:
Assay type in all cases: cell-based, human
AKT = test: Western blot, phosphorylation of AKT; conditions: 320 μmol/L, 90 min, VEGF-A165 30 ng/mL, HUVECs, vs control, AT7, TAT, n = 3
Procedure: For Western blotting analysis, HUVECs were seeded into 6-well culture plates at 3 × 10^5 cells/well and incubated overnight. […] Two control groups (F-12K medium in the absence or presence of VEGF-A165) were set. The cells were washed with cold PBS and lysed with lysis buffer (protease and phosphatase inhibitors) on the ice for 30 min, and then centrifuged at 4 °C for 15 min at 14,000 r/min. The supernatant was collected, and its total protein concentration was determined by the BCA protein assay kit. Equal amounts of proteins were separated by 10% SDS-PAGE gels and transferred to polyvinylidene difluoride (PVDF) membranes. After blocking with 5% non-fat milk for 1 h, the membranes were incubated with specific antibodies at 4 °C overnight. Then, the membranes were washed with TBST (Tris-Buffered Saline with 0.1% Tween 20) and incubated with horseradish peroxidase (HRP)-conjugated secondary antibody for 1 h at room temperature. The proteins on the membranes were visualized with enhanced chemiluminescence agents.

HUVECs [1] = test: Transwell invasion assay; conditions: 160 μmol/L; VEGF-A165 30 ng/mL; 24 h; n = 3
Procedure: Matrigel was diluted in serum-free F-12K medium (dilution ratio 1:5) and was coated onto each transwell chamber and incubated at 37 °C for 2 h. HUVECs were seeded in the upper compartment of the transwell chamber at a density of 2 × 10^4 cells/well. F-12K medium (containing 20% serum) was added to the lower chamber. […] Then, the medium was aspirated, and the chambers were washed with PBS and placed in a fixative for 30 min, stained with 0.1% crystal violet for 30 min, washed with PBS, and dried. An inverted fluorescence microscope was used to photograph the chambers, and the number of invaded cells was counted. The cells that migrated to the bottom of the chamber were photographed with an inverted microscope.

HUVECs [2] = test: Cell proliferation assay (MTT); conditions: 48 h, VEGF-A165 30 ng/mL, n = 3
Procedure: The anti-proliferative effect was evaluated by the MTT assay.
Briefly, HUVECs were seeded into 96-well plates (5 × 10^3 cells/well) and allowed to attach overnight. […] Then, 20 µL of MTT solution was added to each well and further cultured for 4 h under dark conditions. After removing the medium, 150 µL of DMSO was added to dissolve formazan crystals. The 96-well plates were shaken at a low speed for 10 min. The absorbance was measured at 490 nm using a Microplate Reader (Bio-Rad 680, Hercules, CA, USA).

CC(C)C[C@H](NC(=O)[C@H](Cc1c[nH]c2ccccc12)NC(=O)[C@@H](NC(=O)[C@H](C)NC(=O)[C@H](CS)NC(=O)[C@H](CCCNC(=N)N)NC(=O)[C@H](CCCNC(=N)N)NC(=O)[C@H](CCCNC(=N)N)NC(=O)[C@H](CCC(N)=O)NC(=O)[C@H](CCCNC(=N)N)NC(=O)[C@H](CCCNC(=N)N)NC(=O)[C@H](CCCCN)NC(=O)[C@H](CCCCN)NC(=O)[C@@H](N)CCCNC(=N)N)[C@@H](C)O)C(=O)N1CCC[C@H]1C(=O)N1CCC[C@H]1C(=O)N[C@@H](CCCNC(=N)N)C(=O)O [TAT-AT7]
phosphorylation level of AKT (AKT): significantly inhibited the phosphorylation level | invasion rate (HUVECs [1]): significantly lower than that of the other groups | inhibition rate on HUVECs' proliferation (HUVECs [2]; 320 μmol/L, MTT, 490 nm): more than 50% | inhibition of HUVECs' proliferation (HUVECs [2]; 20-320 μmol/L, MTT): significantly inhibit proliferation of HUVECs in a concentration-dependent manner | inhibition rate compared with AT7, TAT, TAT+AT7 (HUVECs [2]; concentration higher than 40 μmol/L): significantly higher than that of the AT7, TAT, and TAT+AT7 groups
